From patent US11760984B2, “CRISPR protein inhibitors” (THE BROAD INSTITUTE, INC., priority 2017, dated 2023)
“Also recorded” adds a separate entry of the source.

What was measured:
[1] = target: T1, dCas9-cytidine deaminase conjugate (BE3) (UniProt P14739+P38483+Q99ZW2, D10A); test: BE3 base-editing of EMX1 gene in HEK293T cells; type: cell-based; settings: 1.25-20 μM, 72 h
T1 construct: made in house; host or cells: E. coli BL21 Star (DE3); purified protein:sgRNA complex lipofected into HEK293T cells
Method: Protein transfection of base editor BE3 into HEK293T cells. HEK293T cells were seeded on 48-well BioCoat poly-D-lysine plates (Corning) in 250 μL of antibiotic-free medium and transfected at ˜70% confluency. Prior to protein transfection, cells were incubated with 2 μL of DMSO-suspended BRD7087 or BRD5779 at the indicated concentration for 2-3 hours. BE3 protein was incubated with 1.1× molar excess of EMX1-targeting sgRNA at a final concentration ratio of 200 nM. 220 nM (based on a total well volume of 275 μL). The complex was mixed with 0.2 μL of compound for five minutes, incubated with 1.5 μL Lipofectamine 2000 (Thermo Fisher) and transfected according to the manufacturer's protocol plasmid delivery. […]
Purifications and sequencing of genomic DNA. […] Barcoded samples were pooled and purified by gel extraction (Qiagen) before quantification using the Qubit dsDNA HS Kit (Thermo Fisher) and qPCR (KAPA BioSystems) according to the manufacturer's instructions. Sequencing of pooled samples was performed using a single-end read from 260 to 300 bases on the MiSeq (Illumina) according to the manufacturer's instructions.
Analysis of base-edited sequences. Nucleotide frequencies were analyzed using a previously described MATLAB script 5. Briefly, the reads were aligned to the reference sequence via the Smith-Waterman algorithm. […]

[2] = tested on: S. aureus RN4220 strain; test: Bacterial resistance study against phage (CRISPR-immunity, OD600 growth curves); type: cell-based; settings: 5-20 μM; for blockage of CRISPR-immunity: sensitization of immune bacterial cells to phage: OD600 over 16 hours, phage MOI 1
Method: (§1) Bacterial study. Plasmid pRH248 harboring SpCas9, tracrRNA and a single-spacer array ([…]) (SEQ ID 13) No. targeting phage (DNM474 was constructed via BsaI cloning onto pDB114 as described in Heler et al 6. Plate reader growth curves of bacteria infected with phage were conducted as described previously with minor modifications 7. Overnight cultures were diluted 1:100 into 2 ml of fresh BHI supplemented with appropriate antibiotics and 5 mM CaCl2) and grown to an OD600 of ˜0.2. Immune cells carrying pRH248 were diluted with cells lacking CRISPR-Cas in a 1:10,000 ratio. Following a 15-minute pre-incubation with DMSO or with varying amounts of inhibitors (5-20 μM), the cultures were infected with <DNM474 at an initial MOI of 1. To produce plate reader growth curves, 200 μL of infected cultures, normalized for OD600, were transferred to a 96-well plate in triplicate. OD600 measurements were collected every 10 minutes for 16 hours. Similarly, growth curves to evaluate the toxicity of the compounds at 20 μM (FIG. 32) were conducted on cultures lacking CRISPR in the absence of phage.
as §1, with “NO:38)” for “13) No.”, “DNM474” for “(DNM474”, “al^6.” for “al 6.”, “modifications^7.” for “modifications 7.”, “DNM474” for “<DNM474”, “Similarly, growth curves to evaluate the toxicity of the compounds at 20 μM (FIG. 32) were conducted on cultures lacking CRISPR in the absence of phage.” left out

SMILES	inhibition of BE3-mediated base-editing (C→T conversion, words) [1]	blockage of CRISPR-immunity: sensitization of immune bacterial cells to phage [2]	activity in phage assay compared with BRD5779 [2]
COc1ccc(-c2ccc3c(c2)[C@H]2[C@H](CCN2Cc2ccncc2)[C@@H](CO)N3)cc1 [BRD5779, ((3aR,4S,9bR)-8-(4-Methoxyphenyl)-1-(pyridin-4-ylmethyl)-2,3,3a,4,5,9b-hexahydro-1H-pyrrolo[3,2-c]quinolin-4-yl)methanol]	efficient and dose-dependent inhibition	able to sensitize the immune bacterial cells against target phage in a dose-dependent manner; also recorded: dose-dependent blockage of CRISPR-Cas9 based immunity	
OC[C@H]1Nc2ccc(-c3cccc(F)c3)cc2[C@H]2[C@@H]1CCN2Cc1ccncc1 [BRD7087, ((3aR,4S,9bR)-8-(3-Fluorophenyl)-1-(pyridin-4-ylmethyl)-2,3,3a,4,5,9b-hexahydro-1H-pyrrolo[3,2-c]quinolin-4-yl)methanol]	efficient and dose-dependent inhibition	able to sensitize the immune bacterial cells against target phage in a dose-dependent manner; also recorded: dose-dependent blockage of CRISPR-Cas9 based immunity	higher activity
